Assays:
[1] = test system: HSC-4 (Oral Cavity Carcinoma); experiment: combination Emax (second highest fraction inhibited in the dose matrix, 72 h); higher = more inhibition; extreme values may be limits of the assay
In short: (§1)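 Cell lines in DMEM/F12 or RPMI with 10% FBS were plated in 1536-well plates, held 24 hours at 37°C, 5% CO2, then given two-drug dose matrices for 72 hours (DMSO typically 0.2%). Viability was read by CellTiter-Glo 2.0 luminescence and scaled as inhibition from 0 (vehicle wells) to 1 (blank wells). Combination Emax is the second-highest inhibition in the matrix; Bliss excess is observed combination effect minus expected EA + EB − EA·EB, EA and EB being single-agent effects.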

[2] = test system: HGC-27 (Gastric Carcinoma); experiment: as above
In short: as §1

[3] = test system: OE19 (Esophageal Adenocarcinoma); experiment: as above
In short: as §1

[4] = test system: JVM-3 (B-Cell Non-Hodgkin's Lymphoma); experiment: as above
In short: as §1

[5] = test system: HOP-62 (Lung Adenocarcinoma); experiment: as above
In short: as §1

[6] = test system: TE-1 (Esophageal Squamous Cell Carcinoma); experiment: as above
In short: as §1

[7] = test system: NEC8 (Other Solid Carcinomas); experiment: as above
In short: as §1

[8] = test system: OE19 (Esophageal Adenocarcinoma); experiment: Bliss excess, mean over the matrix (fraction); higher = more synergy
In short: as §1

[9] = test system: NUGC-3 (Gastric Carcinoma); experiment: as above
In short: as §1

[10] = test system: OSC-20 (Oral Cavity Carcinoma); experiment: as above
In short: as §1

[11] = test system: NCI-H1915 (Non-Small Cell Lung Carcinoma); experiment: as above
In short: as §1

[12] = test system: JVM-3 (B-Cell Non-Hodgkin's Lymphoma); experiment: as above
In short: as §1

[13] = test system: VA-ES-BJ (Other Solid Carcinomas); experiment: as above
In short: as §1

[14] = test system: HOP-62 (Lung Adenocarcinoma); experiment: as above
In short: as §1

[15] = test system: SCC-15 (Oral Cavity Carcinoma); experiment: as above
In short: as §1

[16] = test system: TE-1 (Esophageal Squamous Cell Carcinoma); experiment: as above
In short: as §1

[17] = test system: SU8686 (Pancreatic Carcinoma); experiment: as above
In short: as §1

[18] = test system: C-4-I (Cervical Carcinoma); experiment: as above
In short: as §1

[19] = test system: KMOE-2 (Acute Myeloid Leukemia); experiment: as above
In short: as §1

[20] = test system: OVCAR-4 (Ovarian Carcinoma); experiment: as above
In short: as §1
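Throughout, for Bliss excess, mean over the matrix: after 72 h of two-drug dosing.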

Row | SMILES | combination Emax [1] | combination Emax [2] | combination Emax [3] | combination Emax [4] | combination Emax [5] | combination Emax [6] | combination Emax [7] | Bliss excess [8] | Bliss excess [9] | Bliss excess [10] | Bliss excess [11] | Bliss excess [12] | Bliss excess [13] | Bliss excess [14] | Bliss excess [15] | Bliss excess [16] | Bliss excess [17] | Bliss excess [18] | Bliss excess [19] | Bliss excess [20]
1 | CN(CCO)CC[C@H](CSc1ccccc1)Nc1ccc(S(=O)(=O)NC(=O)c2ccc(N3CCC([C@@H](O)c4ccccc4-c4ccc(Cl)cc4)CC3)cc2)cc1S(=O)(=O)C(F)(F)F [AZD4320] + CCN(CCO)CCCOc1ccc2c(Nc3cc(CC(=O)Nc4cccc(F)c4)[nH]n3)ncnc2c1 [AZD2811] (first compound max 1 µM, 7x7, partner max 1 µM) | 0.517 | 0.96 | 0.854 | 1 | 0.359 | 0.655 | 0.159 | -0.0349 | 0.0077 | -0.062 | 0.0393 | 0.165 | -0.0259 | -0.0197 | 0.0101 | 0.0794 | -0.03 | 0.0557 | 0.0171 | 0.045
2 | COc1cc2ncnc(Nc3ccc(F)c(Cl)c3)c2cc1OCCCN1CCOCC1 [Gefitinib] + CC(C)n1c(=O)n(C)c2cnc3cc(F)c(-c4ccc(OCCCN5CCCCC5)nc4)cc3c21 [AZD1390] (first compound max 10 µM, 7x7, partner max 0.3 µM) | 0.0642 | 0.238 | 0.943 | – | 0.0723 | 0.368 | 0 | -0.0181 | -0.0515 | -0.0691 | -0.0433 | – | -0.0513 | -0.0751 | -0.0571 | -0.0471 | -0.0378 | -0.042 | -0.0589 | -0.0561
3 | COc1cc2c(cc1OCCCCCOc1cc3c(cc1OC)C(=O)N1C=C(C)C[C@H]1C=N3)N=C[C@@H]1CC(C)=CN1C2=O [SG3199] + O=C(c1cc(Cc2n[nH]c(=O)c3ccccc23)ccc1F)N1CCN(C(=O)C2CC2)CC1 [Olaparib] (first compound max 0.001 µM, 7x7, partner max 10 µM) | 0.212 | 0.464 | 0.216 | 0.335 | 0.118 | 0.194 | 0.201 | 0.0098 | -0.0332 | -0.0319 | -0.0248 | -0.0278 | 0.0099 | -0.0276 | -0.03 | -0.0286 | -0.0388 | -0.012 | -0.0283 | -0.0193
4 | Cc1cc2ncnn2cc1Nc1ncc2c(n1)n(C1CCOCC1)c(=O)n2C [AZD7648] + C[C@@H]1COCCN1C2=NC(=NC(=C2)C3(CC3)[S@](=N)(=O)C)C4=C5C=CNC5=NC=C4 [AZD6738] (first compound max 10 µM, 7x7, partner max 10 µM) | 0.584 | 0.849 | 0.813 | 0.809 | 0.435 | 0.414 | 0.7 | -0.0607 | -0.0657 | 0.0065 | -0.0216 | 0.0108 | -0.0099 | -0.0009 | 0.0975 | -0.0086 | -0.0289 | 0.0255 | 0.0035 | -0.0053
5 | CN(CCO)CC[C@H](CSc1ccccc1)Nc1ccc(S(=O)(=O)NC(=O)c2ccc(N3CCC([C@@H](O)c4ccccc4-c4ccc(Cl)cc4)CC3)cc2)cc1S(=O)(=O)C(F)(F)F [AZD4320] + C=CCn1c(=O)c2cnc(Nc3ccc(N4CCN(C)CC4)cc3)nc2n1-c1cccc(C(C)(C)O)n1 [AZD1775] (first compound max 1 µM, partner max 1 µM) | 0.585 | 0.543 | 0.33 | 1 | 0.458 | 0.824 | 0.414 | 0.0072 | -0.0346 | -0.0933 | 0.0125 | -0.101 | 0.006 | -0.0356 | 0.0336 | -0.0034 | -0.0598 | 0.0656 | 0.0656 | -0.0068
6 | CN(CCO)CC[C@H](CSc1ccccc1)Nc1ccc(S(=O)(=O)NC(=O)c2ccc(N3CCC([C@@H](O)c4ccccc4-c4ccc(Cl)cc4)CC3)cc2)cc1S(=O)(=O)C(F)(F)F [AZD4320] + Cn1cnc2c(F)c(Nc3ccc(Br)cc3Cl)c(C(=O)NOCCO)cc21 [Selumetinib] (first compound max 1 µM, 7x7, partner max 3 µM) | 0.797 | 0.381 | 0.314 | 1 | 0.536 | 0.554 | 0.341 | -0.0202 | 0.104 | 0.0488 | 0.0324 | -0.0225 | – | -0.0508 | 0.042 | 0.0819 | -0.0002 | 0.135 | 0.0415 | 0.0108
7 | CN(CCO)CC[C@H](CSc1ccccc1)Nc1ccc(S(=O)(=O)NC(=O)c2ccc(N3CCC([C@@H](O)c4ccccc4-c4ccc(Cl)cc4)CC3)cc2)cc1S(=O)(=O)C(F)(F)F [AZD4320] + C1CN(CCC1(C(=O)N[C@@H](CCO)C2=CC=C(C=C2)Cl)N)C3=NC=NC4=C3C=CN4 [Capivasertib] (first compound max 1 µM, 7x7, partner max 3 µM) | 0.32 | 0.775 | 0.333 | 0.889 | 0.115 | 0.369 | 0.0891 | -0.0479 | -0.039 | -0.0513 | -0.0459 | -0.0162 | -0.0376 | -0.0414 | -0.0606 | -0.0292 | -0.0385 | -0.0101 | -0.0435 | -0.0417
8 | C[C@@H](c1ccc2nccn2c1)n1nnc2ncc(-c3cnn(C)c3)nc21 [Savolitinib] + Cc1c2c(nn1C)CSCc1cc(n(C)n1)CSc1cc(c3ccccc3c1)OCCCc1c(C(=O)O)n(C)c3c-2c(Cl)ccc13 [AZD5991] (first compound max 1 µM, 7x7, partner max 1 µM) | 0.236 | 0.238 | 0.235 | – | 0.154 | 0.162 | 0.273 | -0.093 | -0.0379 | -0.0239 | -0.0587 | – | -0.0299 | -0.0754 | -0.0222 | -0.0748 | -0.0127 | -0.111 | -0.0312 | -0.0713
9 | CN(CCO)CC[C@H](CSc1ccccc1)Nc1ccc(S(=O)(=O)NC(=O)c2ccc(N3CCC([C@@H](O)c4ccccc4-c4ccc(Cl)cc4)CC3)cc2)cc1S(=O)(=O)C(F)(F)F [AZD4320] + C[C@@H]1COCCN1C2=NC(=NC(=C2)C3(CC3)[S@](=N)(=O)C)C4=C5C=CNC5=NC=C4 [AZD6738] (first compound max 1 µM, 7x7, partner max 10 µM) | 0.927 | 0.812 | 0.726 | 0.993 | 0.599 | 0.742 | 0.904 | -0.0789 | -0.0445 | -0.0694 | -0.044 | -0.027 | -0.012 | -0.0483 | 0.0475 | -0.004 | -0.0222 | 0.0036 | -0.0399 | -0.0392
10 | C[C@@H](c1ccc2nccn2c1)n1nnc2ncc(-c3cnn(C)c3)nc21 [Savolitinib] + CC1(C)CCC(CN2CCN(c3ccc(C(=O)NS(=O)(=O)c4ccc(NCC5CCOCC5)c([N+](=O)[O-])c4)c(Oc4cnc5[nH]ccc5c4)c3)CC2)=C(c2ccc(Cl)cc2)C1 [Venetoclax] (first compound max 1 µM, 7x7, partner max 1 µM) | 0 | 0.147 | 0.166 | – | 0.0599 | 0.0986 | 0.117 | -0.0377 | -0.0666 | -0.0521 | -0.0456 | – | -0.0433 | -0.0939 | -0.0613 | -0.0546 | -0.0617 | -0.0585 | -0.0414 | -0.0791
11 | Cc1cc2ncnn2cc1Nc1ncc2c(n1)n(C1CCOCC1)c(=O)n2C [AZD7648] + O=C(c1cc(Cc2n[nH]c(=O)c3ccccc23)ccc1F)N1CCN(C(=O)C2CC2)CC1 [Olaparib] (first compound max 10 µM, 7x7, partner max 10 µM) | 0.26 | 0.629 | 0.289 | 0.499 | 0.145 | 0.15 | 0.259 | -0.0097 | -0.0175 | 0.0194 | -0.0215 | -0.0053 | -0.0416 | -0.0528 | -0.0408 | -0.0298 | -0.0457 | 0.005 | -0.0066 | -0.0214
12 | Cc1cc2ncnn2cc1Nc1ncc2c(n1)n(C1CCOCC1)c(=O)n2C [AZD7648] + C=CCn1c(=O)c2cnc(Nc3ccc(N4CCN(C)CC4)cc3)nc2n1-c1cccc(C(C)(C)O)n1 [AZD1775] (first compound max 10 µM, partner max 1 µM) | 0.41 | 0.771 | 0.465 | 0.904 | 0.241 | 0.621 | 0.123 | -0.0099 | 0.0165 | -0.0252 | -0.0738 | -0.0686 | -0.008 | -0.0093 | 0.0938 | -0.0045 | -0.0542 | -0.015 | -0.0329 | -0.0108
13 | Cc1nc(Nc2ncc(C(=O)Nc3c(C)cccc3Cl)s2)cc(N2CCN(CCO)CC2)n1 [Dasatinib] + CC(=O)Nc1cccc(-n2c(=O)n(C3CC3)c(=O)c3c(Nc4ccc(I)cc4F)n(C)c(=O)c(C)c32)c1 [Trametinib] (first compound max 2 µM, 7x7, partner max 1 µM) | 0.423 | 0.726 | 0.797 | – | 0.749 | 0.791 | 0 | -0.063 | 0.0374 | -0.0148 | 0.0564 | – | -0.033 | -0.0824 | -0.0213 | -0.0067 | -0.0328 | 0.0328 | -0.0125 | 0.0286

From the supplement of paper PMC11061612
